PubChem BioAssay (NCI)
Where “and” joins values, the source holds several entries; their conditions need not be identical. Equal values may be shown once.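 Values below derive from 48-hour exposures of cells grown in 96-well plates, with endpoints linearly interpolated between the two concentrations bracketing the appropriate inhibition level. GI50 marks 50% less growth. TGI: concentration producing complete growth inhibition.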

These molecules were tested on NCI-H460 lung (assay: inhibition of tumour cell growth, NCI panel, 48 h).

Row | SMILES | GI50 | TGI
1 | CN(C)C(=S)Sc1ccc([N+](=O)[O-])cc1[N+](=O)[O-] | 0.74 µM | 4.57 µM
2 | O=[P@@]1(c2ccccc2)O[C@H](COCc2ccccc2)[C@@H](OCc2ccccc2)[C@H](OCc2ccccc2)[C@H]1NCc1ccccc1 | 2.59 µM | 7.11 µM
3 | CSc1ccccc1C#C/C=C\C#Cc1ccccc1N | 4.69 µM | 26 µM
4 | COc1ccc(C(O)(CCC(C)C)C(CN2CCOCC2)c2ccc(Cl)cc2)cc1 (stereo not drawn) | 11.4 µM | 31.6 µM
5 | Cn1c(=O)c(Oc2ccc(F)cc2)cc2cnc(NC3CCOCC3)nc21 | > 25 µM | > 25 µM
6 | CC1(C)N=C(N)N=C(N)N1c1ccc(CCCCc2ccc(Cl)c(S(=O)(=O)F)c2)c(Cl)c1 | 0.315 µM | 16.5 µM
7 | Cc1cc2cc3c(=O)[nH]c(=O)[nH]c3nc2cc1C | – | > 100 µM
8 | CCc1c(Cl)c(C)cc(O)c1Cl | – | > 100 µM
9 | BrCc1cccc(C[P+](c2ccccc2)(c2ccccc2)c2ccccc2)c1 | 25 µM | > 100 µM
10 | C=COC(=O)N[C@H]1CCc2cc(OC)c(OC)c(OC)c2-c2ccc(SC)c(=O)cc21 | – | 0.991 µM
11 | CN(C)c1ncnc2c1ncn2CCn1cnc2c(N(C)C)ncnc21 | – | > 100 µM
12 | CSc1nc(NC2OC(COC(C)=O)C(OC(C)=O)C(OC(C)=O)C2OC(C)=O)c(N=CC=Nc2c(NC3OC(COC(C)=O)C(OC(C)=O)C(OC(C)=O)C3OC(C)=O)nc(SC)n(C)c2=O)c(=O)n1C (stereo not drawn) | > 50 µM | > 100 µM
13 | O=S(=O)(Nc1ccc(Cl)cc1Cl)c1ccc(-c2cnc(C3CC3)o2)cc1 | 0.466 µM | > 40.4 µM
14 | CCc1ccc(/C=C/c2ccc(O)c3ncccc23)[n+](C)c1 | 0.507 µM | > 100 µM
15 | Cc1ccc(Nc2oc(-c3ccccc3)nc2[P+](c2ccccc2)(c2ccccc2)c2ccccc2)cc1 | 0.804 µM | 2.2 µM
16 | CS(=O)(=O)Nc1cc(-c2ccc3ncnc(Nc4c(Cl)ccc5c4OCO5)c3c2)cnc1Cl | 0.236 µM | 4.76 µM
17 | COc1ccccc1Nc1ncc(-c2ccccc2)o1 | > 25 µM | > 25 µM
18 | Nc1ccn(C2OC(CO)C(O)C2O)c(=O)n1 (stereo not drawn) | 0.114 µM and 0.231 µM and 0.12 µM | > 100 µM and 418 µM
19 | CN(C)c1ccc(N=Nc2ccccn2)c(O)c1 | 0.296 µM | > 32.1 µM
20 | CN1CC[C@@H](c2c(O)cc(O)c3c(=O)cc(-c4ccc(C(F)(F)F)cc4Cl)oc23)[C@@H]1CO | 15.8 µM | 31.4 µM

These molecules were tested on SF-539 CNS (assay: inhibition of tumour cell growth, NCI panel, 48 h).

Row | SMILES | GI50 [µM] | TGI
21 | CN(C)C(=S)Sc1ccc([N+](=O)[O-])cc1[N+](=O)[O-] | 3.8 | 14.6 µM
22 | O=[P@@]1(c2ccccc2)O[C@H](COCc2ccccc2)[C@@H](OCc2ccccc2)[C@H](OCc2ccccc2)[C@H]1NCc1ccccc1 | 4.74 | > 100 µM
23 | CSc1ccccc1C#C/C=C\C#Cc1ccccc1N | 7.2 | 23.6 µM
24 | COc1ccc(C(O)(CCC(C)C)C(CN2CCOCC2)c2ccc(Cl)cc2)cc1 (stereo not drawn) | 15.4 | 30.3 µM
25 | Cn1c(=O)c(Oc2ccc(F)cc2)cc2cnc(NC3CCOCC3)nc21 | > 25 | > 25 µM
26 | CC1(C)N=C(N)N=C(N)N1c1ccc(CCCCc2ccc(Cl)c(S(=O)(=O)F)c2)c(Cl)c1 | 0.542 | 13 µM
27 | Cc1cc2cc3c(=O)[nH]c(=O)[nH]c3nc2cc1C | – | > 100 µM
28 | CCc1c(Cl)c(C)cc(O)c1Cl | – | 78.9 µM
29 | BrCc1cccc(C[P+](c2ccccc2)(c2ccccc2)c2ccccc2)c1 | 6.05 | > 100 µM
30 | C=COC(=O)N[C@H]1CCc2cc(OC)c(OC)c(OC)c2-c2ccc(SC)c(=O)cc21 | – | < 0.0464 µM
31 | CN(C)c1ncnc2c1ncn2CCn1cnc2c(N(C)C)ncnc21 | – | > 100 µM
32 | CSc1nc(NC2OC(COC(C)=O)C(OC(C)=O)C(OC(C)=O)C2OC(C)=O)c(N=CC=Nc2c(NC3OC(COC(C)=O)C(OC(C)=O)C(OC(C)=O)C3OC(C)=O)nc(SC)n(C)c2=O)c(=O)n1C (stereo not drawn) | – | 50 µM and 69.3 µM
33 | O=S(=O)(Nc1ccc(Cl)cc1Cl)c1ccc(-c2cnc(C3CC3)o2)cc1 | 0.414 | 7.55 µM
34 | CCc1ccc(/C=C/c2ccc(O)c3ncccc23)[n+](C)c1 | 20.4 | > 100 µM
35 | Cc1ccc(Nc2oc(-c3ccccc3)nc2[P+](c2ccccc2)(c2ccccc2)c2ccccc2)cc1 | 1.59 | 3.02 µM
36 | CS(=O)(=O)Nc1cc(-c2ccc3ncnc(Nc4c(Cl)ccc5c4OCO5)c3c2)cnc1Cl | 0.208 | 0.988 µM
37 | COc1ccccc1Nc1ncc(-c2ccccc2)o1 | > 25 | > 25 µM
38 | Nc1ccn(C2OC(CO)C(O)C2O)c(=O)n1 (stereo not drawn) | 16.8 | –
39 | CN(C)c1ccc(N=Nc2ccccn2)c(O)c1 | 0.355 | 8.44 µM
40 | CN1CC[C@@H](c2c(O)cc(O)c3c(=O)cc(-c4ccc(C(F)(F)F)cc4Cl)oc23)[C@@H]1CO | 13.7 | 28.8 µM

What follows are molecules tested on CAKI-1 renal (assay: inhibition of tumour cell growth, NCI panel, 48 h).

Row | SMILES | GI50 [µM] | TGI [µM]
41 | CN(C)C(=S)Sc1ccc([N+](=O)[O-])cc1[N+](=O)[O-] | 1.58 | 4.79
42 | O=[P@@]1(c2ccccc2)O[C@H](COCc2ccccc2)[C@@H](OCc2ccccc2)[C@H](OCc2ccccc2)[C@H]1NCc1ccccc1 | 2.15 | 8.66
43 | CSc1ccccc1C#C/C=C\C#Cc1ccccc1N | 0.32 | 1.68
44 | COc1ccc(C(O)(CCC(C)C)C(CN2CCOCC2)c2ccc(Cl)cc2)cc1 (stereo not drawn) | 14 | 31.7
45 | Cn1c(=O)c(Oc2ccc(F)cc2)cc2cnc(NC3CCOCC3)nc21 | > 25 | > 25
46 | CC1(C)N=C(N)N=C(N)N1c1ccc(CCCCc2ccc(Cl)c(S(=O)(=O)F)c2)c(Cl)c1 | 1.82 | 10.5
47 | Cc1cc2cc3c(=O)[nH]c(=O)[nH]c3nc2cc1C | – | > 100
48 | CCc1c(Cl)c(C)cc(O)c1Cl | – | > 100
49 | BrCc1cccc(C[P+](c2ccccc2)(c2ccccc2)c2ccccc2)c1 | > 100 | > 100
50 | C=COC(=O)N[C@H]1CCc2cc(OC)c(OC)c(OC)c2-c2ccc(SC)c(=O)cc21 | – | 45.9
51 | CN(C)c1ncnc2c1ncn2CCn1cnc2c(N(C)C)ncnc21 | – | > 100
